From patent US20250339531A1, “DUX4 POLYPEPTIDES AND NUCLEIC ACIDS FOR TREATING INFLAMMATORY AND AUTOIMMUNE CONDITIONS” (Fred Hutchinson Cancer Center, priority 2021, published 2025)
“Also recorded” adds a separate entry of the source. Where a SMILES comes first, the peptide text is derived from it. The star is where a group is joined. Cbz = O=C(OCc1ccccc1)*

Legend:
[1] = tested on: MHC-I, PSMB8, PSMB9, and PSMB10; test: Immunoblot of IFNG-induced MHC-I and immunoproteasome protein in MB135 myoblasts treated with inhibitors; type: cell-based, human; conditions: MB135iDUX4 cells, data not shown
HLA-E = test: Immunoblot of non-canonical MHC class I HLA-E; type: cell-based, human; conditions: MB135iDUX4 cells
Procedure: (§1) Protein samples were harvested in RIPA buffer [150 mM NaCl, 1% NP-40, 0.5% Na-deocycholate, 1% SDS, 25 mM Tris-HCl pH7.4] supplemented with protease and phosphatase inhibitor tablets (Pierce), followed by sonication in Diagenode Bioruptor. Lysate was cleared by centrifugation at 16000×g and quantified using a Pierce BCA assay (Thermo Fisher Scientific). Samples were run on NuPAGE precast polyacrylamide gels (Invitrogen) and transferred to PVDF membrane. Membranes were blocked in PBS containing 0.1% Tween-20 and 5% non-fat dry milk before overnight incubation at 4° C. with primary antibodies (see resource table for a list of antibodies used in this study). Membranes were incubated with horseradish peroxidase-conjugated secondary antibodies for 1 hour at room temperature and SuperSignal chemiluminescent substrate (Thermo Scientific) was used for detection on film with a Mini-medical 90 processor. Membranes were stripped with Restore Western Blot Stripping Buffer (Pierce).

[2] = tested on: MHC-I, PSMB8, PSMB9, and PSMB10; test: Immunoblot of IFNG-induced MHC-I and immunoproteasome protein in MB135 myoblasts treated with inhibitors; type: cell-based, human; conditions: MB135 myoblasts without DUX4 induction, agent then IFNG 16 h; 4EGI-1 at 50 uM
Procedure: To test if mTOR inactivation was sufficient to block MHC-I and immunoproteasome protein levels in the absence of DUX4, parental MB135 myoblasts were treated with mTOR inhibitors everolimus or Torin2. Everolimus is a second-generation rapamycin analog with binding specificity for mTORC1. […] To further validate the role of 4EBP1 in blocking MHC-I and immunoproteasome protein expression, MB135 cells were treated with 4EGI-1, a small molecule that pharmacologically mimics 4EBP function and inhibits eIF4E.
as §1

[3] = tested on: interferon-stimulated genes IFIH1, ISG20, CXCL9, and CD74; test: IFNG induction of interferon-stimulated genes, RT-qPCR in MB135 cells with doxycycline-inducible transgenes; type: cell-based, human; conditions: MB135 cells, doxycycline-induced transgene, continuous protocol, IFNG 16 h
Procedure: (§2) All myoblast experiments were conducted in immortalized MB135 or MB200 myoblast cell lines (isolated from a control or FSHD2 subject, respectively cultured in Ham's F-10 Nutrient Mix (Gibco) supplemented with 15% fetal bovine serum (Hyclone), 100 U/100 μg/ml penicillin/streptomycin (Gibco), 1 μM dexamethasone (Sigma), and 10 ng/ml recombinant human basic fibroblast growth factor (PeproTech). To differentiate the myoblasts to myotubes, media was changed to DMEM supplemented with 10 μg/ml insulin (Sigma) and 10 μg/ml transferrin (Sigma). Cell lines containing doxycycline-inducible transgenes were additionally cultured with 2 μg/mL puromycin (Sigma). Transgenes were induced with 1 μg/mL of doxycycline (Sigma) for 4 hours prior to other treatments for a total of 20 hrs. The Kitra-SRS cells (RRID:CVCL_YI69) were provided by Dr. H. Otani and Osaka University (Nakai et al., 2019) and were cultured in DMEM supplemented with 10% fetal bovine serum (Hyclone) and 100 U/100 μg/ml penicillin/streptomycin (Gibco). Biological replicates consisted of independent but parallel experiments, such as simultaneously stimulating three cell culture plates with IFNγ. Technical replicates consisted of repeat measurements of the same biological sample, such as loading the same biological sample in triplicate for analysis by RT-qPCR.
(§3) Myoblasts were transfected with either (final concentrations) 10 μM 2′,3′-cGAMP (Sigma Aldrich), 2 μg/mL poly(I:C) (Invitrogen), or 1 μg/mL 3′ppp-dsRNA RIG-I ligand (Dan Stetson Lab, UW) using Lipofectamine 2000 according to manufacturer's protocol, or were stimulated with 1000U IFNβ (PeproTech) or 200 ng/ml IFNγ (R+D Systems) by addition directly to cell culture medium. After 16 hours of immune stimulation, RNA was collected from cells using the NucleoSpin RNA Kit (Macherey-Nagel) according to manufacturer's instructions. RNA samples were quantified by nanodrop and 1 μg of RNA per sample was treated with DNase I Amplification Grade (Thermo Fisher), and then synthesized into cDNA using the Superscript IV First-Strand Synthesis System, including oligo dT primers (Invitrogen). qPCR was run in 384-well plates on an Applied Biosystems QuantStudio 6 Flex Real-Time PCR System (ABI) and analyzed in Microsoft Excel.

ISG induction by IFNG = test: RNA-seq of IFNG-induced genes in MB135 cells; type: cell-based, human; conditions: genes induced by IFNG (log 2 fold-change >3), doxycycline + IFNG
Procedure: RNA was extracted as described above from untreated, doxycycline-treated, IFNγ-treated, or doxycycline- and IFNγ-treated samples. RNA was submitted to the Fred Hutchinson Cancer Research Center Genomics Core for library preparation using the TruSeq3 Stranded mRNA kit (Illumina) followed by size and quality analysis by Tapestation (Agilent). Libraries were sequenced on a NextSeq P2-100 (Illumina).
Sequencing analysis was performed using R version 4.0.3 (R Core Team, 2020). Sequencing reads were trimmed using Trimmomatic (version 0.39) (Bolger et al., 2014, Trimmomatic: a flexible trimmer for Illumina sequence data. Bioinformatics 30, 2114-2120), and aligned to the Homo sapiens GRCh38 reference genome with the Rsubread aligner (Liao et al., 2019, The R package Rsubread is easier, faster, cheaper and better for alignment and quantification of RNA sequencing reads. Nucleic Acids Res 47, e47). Gene counts were analyzed using featureCounts (v2.0.1) (Liao et al., 2019, supra) and the Gencode v35 annotation file. Normalization and differential expression analysis were done with DESeq2 (v1.26.0) (Love et al., 2014, Moderated estimation of fold change and dispersion for RNA-seq data with DESeq2. Genome Biol 15, 550).

ZSCAN4 = test: Activation of DUX4 target gene ZSCAN4, RT-qPCR; type: cell-based, human; conditions: MB135 cells ± doxycycline
Procedure: as §2, §3

H3.X/Y = test: Immunoblot of DUX4 target H3.X/Y proteins; type: cell-based, human; conditions: MB135 cells, continuous or pulsed protocol
Procedure: as §1

[4] = tested on: MHC class I proteins (HLA-A/B/C); test: Immunoblot of IFNG-induced MHC class I protein, continuous or pulsed protocol, MB135 myoblasts; type: cell-based, human; conditions: MB135 cells; for suppression of IFNG-induced MHC class I protein, pulsed protocol: 4 h doxycycline pulse, IFNG added later for 16 h; for suppression of IFNG-induced MHC class I protein, continuous protocol: doxycycline 20 h, IFNG last 16 h
Procedure: (§4) In the “continuous” protocol (similar to the experiments shown in the prior FIGS. 1, 2, 4, 5, and 6), doxycycline is added to induce DUX4 expression at time 0 and four hours later IFNG is added for an additional 16 hours, resulting in 20 hours of continuous DUX4 induction with the last 16 hrs exposed to IFNG.
(§5) In the “pulsed” protocol, doxycycline is added at time 0 to induce DUX4 expression, but after four hours the media is changed to remove the doxycycline, resulting in a pulse of DUX4 mRNA and protein sufficient to induce DUX4 target gene expression (see Resnick et al., Cell Rep. 2019 Nov. 12; 29(7):1812-1820.e5). IFNG is added at 28 hours for a period of 16 hours prior to harvesting the cells. […] This difference is not likely to be due to different amounts of the DUX4 and mutant DUX4 proteins because at the time of harvest both DUX4 and the F67A mutant DUX4 protein levels have declined to similarly low amounts relative to the continuous protocol, but could be due to the activation of DUX4 target genes by the full-length DUX4 since the H3.X/Y proteins show persistent expression in the pulsed protocol.
as §1

[5] = tested on: immunoproteasome subunits PSMB8, PSMB9, and PSMB10; test: Immunoblot of IFNG-induced immunoproteasome subunits; type: cell-based, human; conditions: MB135 cells; for suppression of IFNG-induced immunoproteasome subunit protein, pulsed protocol: 4 h doxycycline pulse, later IFNG 16 h; for suppression of IFNG-induced immunoproteasome subunit protein, continuous protocol: doxycycline 20 h, IFNG last 16 h
Procedure: as §4, §5, §1

[6] = tested on: de novo protein synthesis; test: [35S]-methionine/cysteine metabolic labeling of nascent protein synthesis; type: cell-based; conditions: human myoblasts, 20-92 h after 4 h doxycycline pulse
Procedure: Cells were treated with and without a 4-hour pulse of doxycycline. Eight hours prior to harvest, cells were incubated in DMEM depleted for methionine and cysteine (Gibco) supplemented with 90 microcurie 35S-methionine/cysteine (Perkin Elmer) and 50 ng/ml […] (R&D Systems). Protein samples were harvested in RIPA buffer [150 mM NaCl, 1% NP-40, 0.5% Na-deocycholate, 1% SDS, 25 mM Tris-HCl pH7.4] supplemented with protease and phosphatase inhibitor tablets (Pierce), followed by sonication in Diagenode Bioruptor. Lysate was cleared by centrifugation at 16000×g and quantified using a Pierce BCA assay (Thermo Scientific). Samples were run on NuPAGE precast polyacrylamide gels (Invitrogen). Gels were stained with InstantBlue Coomassie (Abcam) following manufacturer protocol, placed on whatman paper, wrapped in plastic wrap, and dried. Gels were exposed to phosphor screen, imaged on Typhoon Trio imager, and analyzed with ImageQuant.

Row | Molecule | rescue of post-transcriptional suppression after a pulse of DUX4 [1] | effect on IFNG-induced HLA-E protein (HLA-E) | effect on IFNG-induced MHC-I and immunoproteasome protein in the absence of DUX4 [2] | suppression of IFNG induction of ISGs (IFIH1, ISG20, CXCL9, CD74) [3] | suppression of IFNG induction of ISGs (IFIH1, ISG20, CXCL9, CD74) ([3]; listed as DUX4-F67A) | IFNG-induced genes whose induction was suppressed more than 2-fold (percent) (ISG induction by IFNG) [%] | IFNG-induced genes whose induction was suppressed more than 4-fold (percent) (ISG induction by IFNG) [%] | transcriptional activation of DUX4 target gene ZSCAN4 (ZSCAN4) | transcriptional activation of DUX4 target gene ZSCAN4 (ZSCAN4; listed as DUX4-F67A) | induction of DUX4 target H3.X/Y proteins (H3.X/Y) | suppression of IFNG-induced MHC class I protein, pulsed protocol ([4]; listed as DUX4(F67A)) | suppression of IFNG-induced MHC class I protein, pulsed protocol ([4]; listed as DUX4-F67A) | suppression of IFNG-induced MHC class I protein, pulsed protocol ([4]; listed as F67A mutant) | suppression of IFNG-induced MHC class I protein, continuous protocol ([4]; listed as DUX4(F67A)) | suppression of IFNG-induced MHC class I protein, continuous protocol ([4]; listed as DUX4-F67A) | suppression of IFNG-induced immunoproteasome subunit protein, pulsed protocol ([5]; listed as DUX4(F67A)) | suppression of IFNG-induced immunoproteasome subunit protein, pulsed protocol ([5]; listed as DUX4 F67A) | suppression of IFNG-induced immunoproteasome subunit protein, continuous protocol ([5]; listed as DUX4(F67A)) | suppression of IFNG-induced immunoproteasome subunit protein, continuous protocol ([5]; listed as DUX4 F67A) | nascent protein synthesis by 35S labeling [6]
1 | CO/C1=C\C(C)=C\[C@@H](C)[C@@H](O)[C@@H](C)C/C(C)=C/C=C/[C@H](OC)[C@@H]([C@@H](C)[C@@H](O)[C@H](C)[C@@]2(O)C[C@@H](O)[C@H](C)[C@@H](C(C)C)O2)OC1=O [Bafilomycin] | did not rescue post-transcriptional suppression |  |  |  |  |  |  |  |  |  |  |  |  |  |  |  |  |  |  | 
2 | CC(C)C[C@@H](C=O)NC(=O)[C@H](CC(C)C)NC(=O)[C@H](CC(C)C)NC(=O)OCc1ccccc1 [MG132] (Cbz-Leu-Leu-Leu-aldehyde) | did not rescue post-transcriptional suppression | stable expression of HLA-E protein | MHC class I induction, but not HLA-E is blocked |  |  |  |  |  |  |  |  |  |  |  |  |  |  |  |  | 
3 | iDUX4-F67A: DUX4 with phenylalanine to alanine mutation in first homeodomain preventing DNA binding, SEQ ID NOS: 6-7 |  |  |  | sufficient to block IFNG-induced ISG expression; also recorded: still suppressed ISG induction by IFNG | fully suppresses the ISG response to IFNG | 70 | 41 | did not activate ZSCAN4 | prevents the transcriptional activation of DUX4 regulated genes | does not induce expression of the DUX4-regulated H3.X/Y | protein levels were completely rescued | does not suppress MHC class I in the pulse protocol | does not suppress MHC class I in the pulsed protocol | suppressed IFNG-induced MHC-I and the immunoproteasome expression | suppress the IFNG induction of MHC class I expression; also recorded: inhibits MHC class I proteins in only the continuous protocol | protein levels were completely rescued; also recorded: neither suppression of PSMB9 or altered 4EBP1 phosphorylation was observed | does not inhibit at all in the pulsed protocol | suppressed IFNG-induced MHC-I and the immunoproteasome expression | only partially inhibits the IFNG induction of PSMB9 and PSMB10 in the continuous protocol | did not suppress protein translation; also recorded: no significant change
